Entries after “also recorded” stand apart in the source; their conditions may differ.
Experiments:
[1] = target: T1, hTRPA1 (Homo sapiens, UniProt O75762); conditions: cited from earlier work
T1 construct: Full-length hTRPA1 was obtained from Life Technologies (Carlsbad, CA); host or cells: HEK293T

[2] = target: T1, hTRPA1; assay: Ca2+-imaging (fura-2): activation by test compounds, normalized to menthol; assay type: cell-based; conditions: test compound 1 mM; HEK293T cells expressing hTRPA1
Experimental: (§1) For Ca^2+-imaging, 1 μg of plasmid DNA containing hTRPA1 in pcDNA3 in OPTI-MEM medium (Life Technologies) was transfected into HEK293T cells using Lipofectamine Plus Reagent (Life Technologies). Following incubation for 3–4 h, cells were reseeded on coverslips and incubated further at 37 °C in 5 % CO2.
(§2) Ca^2+-imaging was performed 1 day after transfection. […] Cytosolic-free Ca^2+ concentrations in HEK293T cells were measured by dual-wavelength fura-2 (Molecular Probes, Invitrogen Corp.) microfluorometry with excitation at 340/380 nm and emission at 510 nm. The fura-2 ratio image was calculated and acquired using the IP-Lab imaging processing system (Scanalytics Inc, Fairfax, VA). Ionomycin was used to confirm cell viability in the vector-transfected cells.
In these experiments, changes in the fura-2 ratio (corresponding to cytosolic Ca^2+ concentrations) induced by the test compounds and menthol were compared because menthol, which activates hTRPA1, and the test compounds are members of the monoterpene family.
Data are presented as the mean ± standard error of the mean (SEM) (n = 27–67)

[3] = system: mTRPA1; conditions: camphor 1 mM; current increased upon washing-out; cited from earlier work
[4] = target: T1, hTRPA1; assay: Whole-cell patch-clamp: inhibition of agonist-induced hTRPA1 current; assay type: cell-based; conditions: for Inhibition of AITC-induced hTRPA1 current / IC50: AITC 20 μM; for Inhibition of AITC-induced hTRPA1 current / Inhibition of FFA-activated hTRPA1-mediated current / Inhibition of menthol-activated hTRPA1-mediated current: test compound 1 mM, -60 mV; for Inhibition of AITC-induced hTRPA1 current / Inhibition of FFA-activated hTRPA1-mediated current / Inhibition of menthol-activated hTRPA1-mediated current / IC50: no extracellular Ca2+; for Comparison of inhibitory effects on hTRPA1 activity between optical isomers of borneol: AITC 20 μM-induced current (ESM Fig. 2); for Inhibition of FFA-activated hTRPA1-mediated current: FFA 100 μM; for Inhibition of menthol-activated hTRPA1-mediated current: menthol 1 mM; for IC50: patch-clamp, mean ± SEM, n = 5-10, Hill fit
Experimental: (§3) Human embryonic kidney (HEK) 293T cells were maintained in DMEM (WAKO Pure Chemical Industries Ltd.) supplemented with 10 % fetal bovine serum (Biowest SAS, Caille, France), 100 U/mL penicillin (Life Technologies), 100 μg/mL streptomycin (Life Technologies), and 2 mM L-glutamine (GlutaMAX; Life Technologies) at 37 °C in 5 % CO2. For Ca^2+-imaging, 1 μg of plasmid DNA containing hTRPA1 in pcDNA3 in OPTI-MEM medium (Life Technologies) was transfected into HEK293T cells using Lipofectamine Plus Reagent (Life Technologies). Following incubation for 3–4 h, cells were reseeded on coverslips and incubated further at 37 °C in 5 % CO2.
(§4) Whole-cell patch-clamp recordings were performed 1 day after transfection. The standard bath solution was the same as that used in the Ca^2+-imaging experiments, and extracellular Ca^2+ was removed and 5 mM EGTA added for the recording of AITC-, menthol- and FFA-induced current responses. The pipette solution contained 140 mM KCl, 5 mM EGTA, and 10 mM HEPES, pH 7.4 (adjusted with KOH). Data from the whole-cell voltage-clamp recordings were sampled at 10 kHz and filtered at 5 kHz for analysis (Axon 200B amplifier with pCLAMP software; Axon Instruments, Sunnyvale, CA). The membrane potential was clamped at −60 mV for all conditions. In some experiments, voltage ramp-pulses from −100 to +100 mV (500 ms) were applied every 5 s. All experiments were performed at room temperature.
(§5) Data in all of the figures are shown as the mean ± standard error of the mean, and P values of <0.05 were considered to be significant. […] Dose-dependent curves were fit with a Hill equation.
The current response was measured in the absence of extracellular Ca^2+ to minimize desensitization. […] The dose-dependency of the inhibitory effects of the three compounds on hTRPA1 was then examined using the patch-clamp method. […] Commercially available borneol contains both optical isomers.

[5] = target: T2, hTRPA1-S873V/T874L (Homo sapiens, UniProt O75762, S873V/T874L); assay: Whole-cell patch-clamp: inhibition of AITC-activated current in the mutant channel; assay type: cell-based; conditions: borneol 0.03, 0.3, 1 mM; camphor 0.03, 0.3, 3 mM; 1,8-cineole 1, 5, 10 mM; -60 mV; no extracellular Ca2+
T2 construct: Full-length hTRPA1 was obtained from Life Technologies (Carlsbad, CA); expressed in transfected cells; host or cells: HEK293T
Experimental: as §4, §5
(§6) To test this hypothesis, we investigated whether the serine and threonine residues are involved in the inhibitory effect of borneol. […] We searched for an involvement of other amino acids in borneol activity.

[6] = target: T3, hTRPA1-Y812A (Homo sapiens, UniProt O75762, Y812A); assay: as above; assay type: cell-based; conditions: borneol 0.03, 0.3, 1 mM; camphor 0.03, 0.3, 3 mM; 1,8-cineole 1, 5, 10 mM; -60 mV; no extracellular Ca2+
T3 construct: Full-length hTRPA1 was obtained from Life Technologies (Carlsbad, CA); expressed in transfected cells; host or cells: HEK293T
Experimental: as §4, §5, §6

[7] = target: T1, hTRPA1; assay: Whole-cell patch-clamp: activation of hTRPA1 current by test compounds; assay type: cell-based; conditions: HEK293T cells expressing hTRPA1
Experimental: as §3, §4
In order to confirm the effects of the above compounds, we performed patch-clamp experiments with HEK293T cells expressing hTRPA1.
Cells were held at −60 mV and ramp-pulses from −100 to +100 mV (500 ms) were administered every 5 s

[8] = target: T1, hTRPA1; assay: Ca2+-imaging (fura-2): inhibition of menthol-induced cytosolic Ca2+ increase; assay type: cell-based; conditions: menthol 1 mM; test compound 1 mM; HEK293T cells expressing hTRPA1
Experimental: as §1, §2
Data are presented as the mean ± SEM (n = 47–79)

[9] = system: vector-transfected HEK293T cells; assay: Ca2+-imaging in vector-transfected cells (control); assay type: cell-based, human; conditions: with or without menthol; cells responded normally to ionomycin 5 μM
Experimental: (§7) Ca^2+-imaging was performed 1 day after transfection. HEK293T cells on coverslips were mounted in an open chamber and superfused with a standard bath solution (140 mM NaCl, 5 mM KCl, 2 mM MgCl2, 2 mM CaCl2, 10 mM HEPES, and 10 mM glucose, pH 7.4). Cytosolic-free Ca^2+ concentrations in HEK293T cells were measured by dual-wavelength fura-2 (Molecular Probes, Invitrogen Corp.) microfluorometry with excitation at 340/380 nm and emission at 510 nm. The fura-2 ratio image was calculated and acquired using the IP-Lab imaging processing system (Scanalytics Inc, Fairfax, VA). Ionomycin was used to confirm cell viability in the vector-transfected cells.
Washing-out of the three compounds after menthol exposure led to small increases in the fura-2 ratio, which could be due to the loss of inhibition and resumption of hTRPA1 activity from residual menthol in the cell.
Supplementary file 12576_2013_289_MOESM1_ESM.jpg: Supplementary material 1 (JPEG 324 kb) Supplementary Figure 1. […] (n = 48-75)

[10] = target: T4, hTRPA1 Y812A mutant (Homo sapiens, UniProt O75762, Y812A); assay: Ca2+-imaging screen of tyrosine mutants in TM2 and TM3 of hTRPA1; assay type: cell-based; conditions: data not shown
T4 construct: Full-length hTRPA1 was obtained from Life Technologies (Carlsbad, CA); expressed in transfected cells; host or cells: HEK293T
Experimental: as §7
A mouse TRPA1 mutant in which serine and threonine residues located in the predicted inner side of TM5 were replaced with valine and leucine (S876V/T877L), respectively, was neither activated nor inhibited by menthol. […] To test this hypothesis, we investigated whether the serine and threonine residues are involved in the inhibitory effect of borneol. […] We searched for an involvement of other amino acids in borneol activity.

[11] = test compound 1 mM, held at -60 mV, ramp-pulses -100 to +100 mV

T3 sequence (O75762 whole entry Y812A): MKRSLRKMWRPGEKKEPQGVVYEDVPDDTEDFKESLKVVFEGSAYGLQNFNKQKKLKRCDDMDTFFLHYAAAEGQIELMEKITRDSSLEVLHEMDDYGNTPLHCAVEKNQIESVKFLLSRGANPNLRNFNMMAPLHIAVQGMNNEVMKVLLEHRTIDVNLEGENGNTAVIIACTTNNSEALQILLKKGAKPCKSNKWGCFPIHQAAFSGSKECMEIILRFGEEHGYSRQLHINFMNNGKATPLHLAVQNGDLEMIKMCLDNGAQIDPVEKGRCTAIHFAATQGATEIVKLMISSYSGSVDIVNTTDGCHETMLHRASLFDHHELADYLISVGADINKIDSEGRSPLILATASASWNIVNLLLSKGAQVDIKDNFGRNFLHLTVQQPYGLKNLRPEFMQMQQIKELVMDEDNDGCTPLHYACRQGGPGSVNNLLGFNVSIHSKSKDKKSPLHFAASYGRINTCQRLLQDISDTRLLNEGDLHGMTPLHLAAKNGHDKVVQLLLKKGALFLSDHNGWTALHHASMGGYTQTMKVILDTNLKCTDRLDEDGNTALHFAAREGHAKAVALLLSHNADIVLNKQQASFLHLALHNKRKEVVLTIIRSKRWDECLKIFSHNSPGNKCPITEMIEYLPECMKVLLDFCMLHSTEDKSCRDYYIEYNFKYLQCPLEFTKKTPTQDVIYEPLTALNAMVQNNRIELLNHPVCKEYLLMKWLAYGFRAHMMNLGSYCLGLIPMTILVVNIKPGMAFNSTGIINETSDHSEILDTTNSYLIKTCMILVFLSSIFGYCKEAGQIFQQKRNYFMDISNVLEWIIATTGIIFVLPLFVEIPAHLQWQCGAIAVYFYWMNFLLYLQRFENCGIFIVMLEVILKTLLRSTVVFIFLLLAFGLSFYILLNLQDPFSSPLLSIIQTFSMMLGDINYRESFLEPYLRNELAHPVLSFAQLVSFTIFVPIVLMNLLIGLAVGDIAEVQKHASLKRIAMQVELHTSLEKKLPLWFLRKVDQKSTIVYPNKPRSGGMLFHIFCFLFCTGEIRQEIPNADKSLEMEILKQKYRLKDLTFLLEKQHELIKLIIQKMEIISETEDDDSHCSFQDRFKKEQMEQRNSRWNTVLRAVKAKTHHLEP
T1 sequence (O75762 whole entry): as the sequence (O75762 whole entry Y812A) above, with A812Y counted along it
T2 sequence (O75762 whole entry S873V/T874L): as the sequence (O75762 whole entry Y812A) above, with A812Y, S873V, T874L counted along it
T4 sequence (O75762 whole entry Y812A): as the sequence (O75762 whole entry Y812A) above

## CC1CCC(C(C)C)C(O)C1 (centres unmarked) [menthol]
[1]
  Effect on hTRPA1 (activation or inhibition): activate hTRPA1

## CC12CCC(C1)C(C)(C)C2=O (single isomer, unassigned; (-)) [(−)-Fenchone]
[2]
  Change in fura-2 ratio (340/380 nm) by test compound, normalized to the change by 1 mM menthol: activated hTRPA1

## CC12CCC(CC1=O)C2(C)C (centres unmarked) [Camphor]
[1]
  Effect on hTRPA1 (activation or inhibition): inhibit hTRPA1
[3]
  Effect on mTRPA1-mediated basal current: inhibition of mTRPA1-mediated basal current
[4]
  Inhibition of AITC-induced hTRPA1 current: partially inhibited
[5]
  Inhibitory effect on AITC-activated current of hTRPA1-S873V/T874L compared with hTRPA1-WT: no significant changes
[6]
  Inhibitory effect on AITC-activated current of hTRPA1-Y812A compared with hTRPA1-WT: such differences between WT hTRPA1 and hTRPA1-Y812A were not observed

## CC1(C)[C@H]2CC[C@]1(C)[C@H](O)C2 [(−)-borneol]
[4]
  Comparison of inhibitory effects on hTRPA1 activity between optical isomers of borneol: no difference in the inhibitory effects

## CC12CCC(C1)C(C)(C)C2O (centres unmarked) [Fenchyl alcohol]
[7]; [11]
  Activation of whole-cell hTRPA1 current: did not activate hTRPA1
[4]
  Inhibition of AITC-induced hTRPA1 current: completely inhibited
  Inhibition of FFA-activated hTRPA1-mediated current: completely inhibited
  Inhibition of menthol-activated hTRPA1-mediated current: completely inhibited

## CC1(C)C2CCC1(C)C(O)C2 (centres unmarked) [Borneol]
[7]; [11]
  Activation of whole-cell hTRPA1 current: did not activate hTRPA1
[8]
  Inhibition of the menthol-induced increase in fura-2 ratio: almost completely blocked
[9]
  Effect on fura-2 ratio in vector-transfected cells: did not provide any effect; also recorded: No changes in the fura-2 ratio
[4]
  IC50: 200 ± 60 µM
  Inhibition of AITC-induced hTRPA1 current: completely inhibited
  Inhibition of FFA-activated hTRPA1-mediated current: completely inhibited
  Inhibition of menthol-activated hTRPA1-mediated current: completely inhibited
[2]
  Change in fura-2 ratio (340/380 nm) by test compound, normalized to the change by 1 mM menthol: small changes in the fura-2 ratio
[5]
  Inhibitory effect on AITC-activated current of hTRPA1-S873V/T874L compared with hTRPA1-WT: significantly lower
[6]
  Inhibitory effect on AITC-activated current of hTRPA1-Y812A compared with hTRPA1-WT: significantly lower inhibitory effect
[10]
  Effect of borneol on the Y812A mutant in Ca2+-imaging: reduced

## O=C1CC2CC[C@H]1C2 [Norcamphor]
[7]; [11]
  Activation of whole-cell hTRPA1 current: did not activate hTRPA1
[8]
  Inhibition of the menthol-induced increase in fura-2 ratio: did not inhibit
[9]
  Effect on fura-2 ratio in vector-transfected cells: did not provide any effect; also recorded: No changes in the fura-2 ratio
[2]
  Change in fura-2 ratio (340/380 nm) by test compound, normalized to the change by 1 mM menthol: small changes in the fura-2 ratio

## CC(C)C12CCC(C)(CC1)O2 [1,4-cineole]
[1]
  Effect on hTRPA1 (activation or inhibition): activate hTRPA1

## CC1(C)[C@@H]2CC[C@@]1(C)[C@](C)(O)C2 [2-Methylisoborneol]
[7]; [11]
  Activation of whole-cell hTRPA1 current: did not activate hTRPA1
[8]
  Inhibition of the menthol-induced increase in fura-2 ratio: almost completely blocked
[9]
  Effect on fura-2 ratio in vector-transfected cells: did not provide any effect; also recorded: No changes in the fura-2 ratio
[4]
  IC50: 120 ± 30 µM
  Inhibition of AITC-induced hTRPA1 current: completely inhibited
  Inhibition of FFA-activated hTRPA1-mediated current: completely inhibited
  Inhibition of menthol-activated hTRPA1-mediated current: completely inhibited
[2]
  Change in fura-2 ratio (340/380 nm) by test compound, normalized to the change by 1 mM menthol: small changes in the fura-2 ratio

## C=CCN=C=S [AITC, allyl isothiocyanate, reference compound]
[7]; AITC 20 μM
  Activation of whole-cell hTRPA1 current: robust current activation with outward rectification

## CC12CCC(CC1)C(C)(C)O2 [1,8-Cineole]
[1]
  Effect on hTRPA1 (activation or inhibition): inhibit hTRPA1
[5]
  Inhibitory effect on AITC-activated current of hTRPA1-S873V/T874L compared with hTRPA1-WT: no significant changes
[6]
  Inhibitory effect on AITC-activated current of hTRPA1-Y812A compared with hTRPA1-WT: such differences between WT hTRPA1 and hTRPA1-Y812A were not observed

## CC1(C)[C@@H]2CC[C@@]1(C)[C@@H](O)C2 [(+)-borneol]
[4]
  Comparison of inhibitory effects on hTRPA1 activity between optical isomers of borneol: no difference in the inhibitory effects
